Laboratory results taken from patent publication US12358907B2, “Substituted pyrrolidine amides III” (GRÜNENTHAL GMBH, priority 2019, dated 2025).

target: glucocorticoid receptor (GAL4 DBD-GR) (Homo sapiens (Human), UniProt P04150); test: GR cell-based assays (GRE agonist / GRE antagonist), CHO-Gal4/GR luciferase reporter; settings: CHO-Gal4/GR reporter cells, agonist mode (EC50) or antagonist mode against beclometasone (IC50), 6 hour incubation
In short: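 CHO cells stably carrying GAL4 DBD-GR ligand-binding-domain fusion and a GAL4-UAS firefly luciferase reporter were treated in Opti-MEM with 8 half-log concentrations from 10 μM to 0.003 μM (0.5% DMSO, quadruplicates). Antagonist mode measured repression of beclomethasone-induced signal. Luminescence after lysis gave EC50 or IC50.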

Chain of glucocorticoid receptor (GAL4 DBD-GR) (P04150 524-758): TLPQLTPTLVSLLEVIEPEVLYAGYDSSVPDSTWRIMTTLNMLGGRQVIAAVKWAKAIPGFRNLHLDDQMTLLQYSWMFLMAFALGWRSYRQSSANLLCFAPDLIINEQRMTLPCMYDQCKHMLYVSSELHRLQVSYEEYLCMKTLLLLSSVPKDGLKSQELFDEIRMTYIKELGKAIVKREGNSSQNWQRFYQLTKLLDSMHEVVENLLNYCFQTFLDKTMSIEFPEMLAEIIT

Row | IC50 [nM] | SMILES
1 | < 100 | Cc1ncc(C(=O)N[C@@H]2[C@@H](c3ccccc3)N(c3ccc4c(cnn4-c4ccc(F)cc4)c3)C(=O)C2(C)C)o1 [Example 44a, N-((2R,3S)-1-(1-(4-fluorophenyl)-1H-indazol-5-yl)-4,4-dimethyl-5-oxo-2-phenylpyrrolidin-3-yl)-2-methyloxazole-5-carboxamide]
2 | < 100 | Cc1ncoc1C(=O)N[C@@H]1[C@@H](c2ccccc2)N(c2ccc3c(cnn3-c3ccc(F)cc3)c2)C(=O)C1(C)C [Example 45a, N-((2R,3S)-1-(1-(4-fluorophenyl)-1H-indazol-5-yl)-4,4-dimethyl-5-oxo-2-phenylpyrrolidin-3-yl)-4-methyloxazole-5-carboxamide]
3 | < 100 | O=C(N[C@H]1[C@H](F)C(=O)N(c2ccc3c(cnn3-c3ccc(F)cc3)c2)[C@@H]1c1ccccc1)C1CC1 [Example 95, N-((2R,3R,4S)-4-fluoro-1-(1-(4-fluorophenyl)-1H-indazol-5-yl)-5-oxo-2-phenylpyrrolidin-3-yl)cyclopropanecarboxamide]
4 | < 100 | O=C(N[C@@H]1[C@@H](c2ccccc2)N(c2ccc3c(cnn3-c3ccc(F)cc3)c2)C(=O)C1(F)F)C1CC1 [Example 96, N-((2R,3R)-4,4-difluoro-1-(1-(4-fluorophenyl)-1H-indazol-5-yl)-5-oxo-2-phenylpyrrolidin-3-yl)cyclopropanecarboxamide]
5 | < 100 | O=C(N[C@@H]1[C@@H](c2ccccc2)N(c2ccc3c(cnn3-c3ccc(F)cc3)c2)C(=O)[C@@H]1CC(F)F)C1CC1 [Example 132, N-((2R,3S,4R)-4-(2,2-difluoroethyl)-1-(1-(4-fluorophenyl)-1H-indazol-5-yl)-5-oxo-2-phenylpyrrolidin-3-yl)cyclopropanecarboxamide]

Row | SMILES | IC50 [nM]
6 | O=C(N[C@@H]1[C@@H](c2ccccc2)N(c2ccc3c(cnn3-c3ccc(F)cc3)c2)C(=O)C12CCC2)C1CC1 [Example 135, N-((7R,8S)-6-(1-(4-fluorophenyl)-1H-indazol-5-yl)-5-oxo-7-phenyl-6-azaspiro[3.4]octan-8-yl)cyclopropanecarboxamid] | < 100

same assay, conditions: read-out: IC50 or EC50

Row | SMILES | IC50 [nM]
7 | Cc1ncc(C(=O)N[C@H]2[C@H](c3ccccc3)N(c3ccc4c(cnn4-c4ccc(F)cc4)c3)C(=O)C2(C)C)o1 [Example 44b, N-((2S,3R)-1-(1-(4-fluorophenyl)-1H-indazol-5-yl)-4,4-dimethyl-5-oxo-2-phenylpyrrolidin-3-yl)-2-methyloxazole-5-carboxamide] | 100 to 1000
8 | C[C@@H]1C(=O)N(c2ccc3c(cnn3-c3ccc(F)cc3)c2)[C@H](c2ccc(Cl)s2)[C@H]1NS(C)(=O)=O [Example 114, N-[(2S,3S,4S)-2-(5-Chloro-thiophen-2-yl)-1-[1-(4-fluorophenyl)-1H-indazol-5-yl]-4-methyl-5-oxo-pyrrolidin-3-yl]-methanesulfonic acid amide] | 100 to 1000
9 | C[C@@]1(c2ccc(Cl)s2)[C@@H](NC(=O)C2CC2)CC(=O)N1c1ccc2c(cnn2-c2ccc(F)cc2)c1 [Example 151, N-((2S,3S)-2-(5-chlorothiophen-2-yl)-1-(1-(4-fluorophenyl)-1H-indazol-5-yl)-2-methyl-5-oxopyrrolidin-3-yl)cyclopropanecarboxamide] | 100 to 1000

The next lines start with the values.

Row | IC50 [nM] | SMILES
10 | 1000 to 15000 | CC1(C)C(=O)N(c2ccc3c(cnn3-c3ccc(F)cc3)c2)[C@@H](c2ccccc2)[C@@H]1NC(=O)c1ncccn1 [Example 43b, N-((2S,3R)-1-(1-(4-fluorophenyl)-1H-indazol-5-yl)-4,4-dimethyl-5-oxo-2-phenylpyrrolidin-3-yl)pyrimidine-2-carboxamide]
11 | 100 to 1000 | Cc1ncoc1C(=O)N[C@H]1[C@H](c2ccccc2)N(c2ccc3c(cnn3-c3ccc(F)cc3)c2)C(=O)C1(C)C [Example 45b, N-((2S,3R)-1-(1-(4-fluorophenyl)-1H-indazol-5-yl)-4,4-dimethyl-5-oxo-2-phenylpyrrolidin-3-yl)-4-methyloxazole-5-carboxamide]
12 | 100 to 1000 | O=C(N[C@H]1[C@H](CC(F)F)C(=O)N(c2ccc3c(cnn3-c3ccc(F)cc3)c2)[C@@H]1c1ccccc1)C1CC1 [Example 131, N-((2R,3S,4S)-4-(2,2-difluoroethyl)-1-(1-(4-fluorophenyl)-1H-indazol-5-yl)-5-oxo-2-phenylpyrrolidin-3-yl)cyclopropanecarboxamide]
13 | 100 to 1000 | Cc1noc(C[C@@H]2C(=O)N(c3ccc4c(cnn4-c4ccc(F)cc4)c3)[C@H](c3ccccc3)[C@H]2NC(=O)C2CC2)n1 [Example 138, N-((2R,3S,4S)-1-(1-(4-fluorophenyl)-1H-indazol-5-yl)-4-((3-methyl-1,2,4-oxadiazol-5-yl)methyl)-5-oxo-2-phenylpyrrolidin-3-yl)cyclopropanecarboxamide]
14 | 1000 to 15000 | Cn1cc(C[C@@H]2C(=O)N(c3ccc4c(cnn4-c4ccc(F)cc4)c3)[C@H](c3ccccc3)[C@H]2NC(=O)C2CC2)cn1 [Example 139a, N-((2R,3S,4S)-1-(1-(4-fluorophenyl)-1H-indazol-5-yl)-4-((1-methyl-1H-pyrazol-4-yl)methyl)-5-oxo-2-phenylpyrrolidin-3-yl)cyclopropanecarboxamide]
15 | 1000 to 15000 | Cn1cc(C[C@H]2C(=O)N(c3ccc4c(cnn4-c4ccc(F)cc4)c3)[C@H](c3ccccc3)[C@H]2NC(=O)C2CC2)cn1 [Example 139b, N-((2R,3S,4R)-1-(1-(4-fluorophenyl)-1H-indazol-5-yl)-4-((1-methyl-1H-pyrazol-4-yl)methyl)-5-oxo-2-phenylpyrrolidin-3-yl)cyclopropanecarboxamide]
16 | 100 to 1000 | O=C(N[C@@H]1[C@@H](c2ccccc2)N(c2ccc3c(cnn3-c3ccc(F)cc3)c2)C(=O)[C@@H]1Cc1nccs1)C1CC1 [Example 150, N-((2R,3S,4R)-1-(1-(4-fluorophenyl)-1H-indazol-5-yl)-5-oxo-2-phenyl-4-(thiazol-2-ylmethyl)pyrrolidin-3-yl)cyclopropanecarboxamide]
